Patent US20090147264A1, “LABEL-FREE, REAL-TIME DETECTION SYSTEM FOR MOLECULAR INTERACTION ANALYSIS” (The University of Pittsburgh - Of the Commonwealth System …, priority 2007, published 2009)

Legend:
HMGB1 [1] = target: T1, HMGB1 (Homo sapiens, UniProt P09429); assay: Biolayer interferometry (BLI) binding of DNA to HMGB1 coupled to a biolayer sensor; conditions: for effect of addition of platinum compound on DNA binding / affinity of DNA to HMGB1: platinum compound added to DNA; for Kd: HMGB1 amide-coupled to biolayer sensor, + CP = with cisplatin, read-out: Affinity to HMGB1
T1 sequence (P09429 1-215): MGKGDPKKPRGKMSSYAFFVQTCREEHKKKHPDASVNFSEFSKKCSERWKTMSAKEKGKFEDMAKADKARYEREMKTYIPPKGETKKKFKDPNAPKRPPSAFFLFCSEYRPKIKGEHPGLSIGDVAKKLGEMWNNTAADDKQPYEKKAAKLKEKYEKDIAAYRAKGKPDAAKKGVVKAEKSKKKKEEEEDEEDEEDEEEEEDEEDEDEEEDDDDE

HMGB1 [2] = target: HMGB1 (Homo sapiens?) (UniProt P09429); assay: BLI; conditions: given as affinity, unit not stated (M assumed)
RAGE = RAGE (Homo sapiens, UniProt Q15109); assay: BLI binding of sRAGE to HMGB1 in the presence of DNA; conditions: for Kd: sRAGE binding to HMGB1 in the presence of the DNA, + CP = with cisplatin, read-out: Affinity to RAGE
Chain of RAGE (Q15109 23-342 limits assumed, one chain of several): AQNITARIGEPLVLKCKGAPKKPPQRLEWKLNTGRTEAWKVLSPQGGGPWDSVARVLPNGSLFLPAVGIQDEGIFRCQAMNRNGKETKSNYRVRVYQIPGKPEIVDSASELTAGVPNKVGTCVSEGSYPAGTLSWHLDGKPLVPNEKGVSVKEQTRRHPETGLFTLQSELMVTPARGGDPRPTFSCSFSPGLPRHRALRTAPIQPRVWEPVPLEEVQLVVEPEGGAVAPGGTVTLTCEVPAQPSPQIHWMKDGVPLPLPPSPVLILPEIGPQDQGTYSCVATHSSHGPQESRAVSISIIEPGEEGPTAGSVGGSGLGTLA

## N.N.O=C([O-])C1(C(=O)[O-])CCC1.[Pt+2] [carboplatinum, carboplatin]
HMGB1 [1]
  effect of addition of platinum compound on DNA binding / affinity of DNA to HMGB1: enhanced DNA binding

## Circular DNA
HMGB1 [2]; p52 says circular DNA not measured well
  Kd: 3.6 nM

## Linear DNA
HMGB1 [2]
  Kd: 0.014 nM

## 5′-CCTCTCTGGACCTTCC*T*T*T*T*GGAAGGTCCAGAGA*G*G [Oligo 1]
HMGB1 [1]
  Kd: 6.6 nM
RAGE
  Kd: 8.7 nM

## O=C1[O][Pt]2([NH][C@@H]3CCCC[C@H]3[NH]2)[O]C1=O [oxaliplatin]
HMGB1 [1]
  effect of addition of platinum compound on DNA binding / affinity of DNA to HMGB1: enhanced DNA binding

## 5′-CTGGACCTTCC*T*T*T*T*GGAAGGTCC*A*G [Oligo 2]
HMGB1 [1]
  Kd: 33 nM
RAGE
  Kd: 4.3 nM

## 5′-GTA cGA agT CCG TTC cTa GGC tTG ct-3′ (5'-GTA cGA agT CCG TTC cTa GGC tTG ct-3'; as printed in the source, key not given here) [Scrambled 2, scrambled hairpin oligonucleotide used as a control]
HMGB1 [1]
  Kd: 180 nM
RAGE
  Kd: 3.9 nM

## N.N.[Cl][Pt][Cl] [cisplatin]
HMGB1 [1]
  effect of addition of platinum compound on DNA binding / affinity of DNA to HMGB1: increases the affinity
HMGB1 [1]; listed as cis-platinum
  effect of addition of platinum compound on DNA binding / affinity of DNA to HMGB1: enhanced DNA binding
RAGE; in the presence of cisplatin
  effect of cisplatin on affinity between sRAGE and HMGB1: No increased affinity

## 5′-cTC CGA CGc tCA aTG cTG GTA CGG Tat CCG TgT TAG-3′ (CTCCGACGCTCAATGCTGGTACGGTATCCGTGTTAG; chemistry not given here) [Scrambled 1, scrambled hairpin oligonucleotide used as a control]
HMGB1 [1]
  Kd: 51 nM
RAGE
  Kd: 8.7 nM
